This is an account of results in patent publication US20260217767A1, “NOVEL A4B7 THIOETHER PEPTIDE DIMER ANTAGONISTS” (Protagonist Therapeutics, Inc., priority 2014, published 2026).

In this test the target is T1, rh integrin α4β7 (Homo sapiens, UniProt P13612+P26010).
T1 construct: purchased R&D Systems 5397-A30
T1 sequence (P13612 34-977 limits assumed): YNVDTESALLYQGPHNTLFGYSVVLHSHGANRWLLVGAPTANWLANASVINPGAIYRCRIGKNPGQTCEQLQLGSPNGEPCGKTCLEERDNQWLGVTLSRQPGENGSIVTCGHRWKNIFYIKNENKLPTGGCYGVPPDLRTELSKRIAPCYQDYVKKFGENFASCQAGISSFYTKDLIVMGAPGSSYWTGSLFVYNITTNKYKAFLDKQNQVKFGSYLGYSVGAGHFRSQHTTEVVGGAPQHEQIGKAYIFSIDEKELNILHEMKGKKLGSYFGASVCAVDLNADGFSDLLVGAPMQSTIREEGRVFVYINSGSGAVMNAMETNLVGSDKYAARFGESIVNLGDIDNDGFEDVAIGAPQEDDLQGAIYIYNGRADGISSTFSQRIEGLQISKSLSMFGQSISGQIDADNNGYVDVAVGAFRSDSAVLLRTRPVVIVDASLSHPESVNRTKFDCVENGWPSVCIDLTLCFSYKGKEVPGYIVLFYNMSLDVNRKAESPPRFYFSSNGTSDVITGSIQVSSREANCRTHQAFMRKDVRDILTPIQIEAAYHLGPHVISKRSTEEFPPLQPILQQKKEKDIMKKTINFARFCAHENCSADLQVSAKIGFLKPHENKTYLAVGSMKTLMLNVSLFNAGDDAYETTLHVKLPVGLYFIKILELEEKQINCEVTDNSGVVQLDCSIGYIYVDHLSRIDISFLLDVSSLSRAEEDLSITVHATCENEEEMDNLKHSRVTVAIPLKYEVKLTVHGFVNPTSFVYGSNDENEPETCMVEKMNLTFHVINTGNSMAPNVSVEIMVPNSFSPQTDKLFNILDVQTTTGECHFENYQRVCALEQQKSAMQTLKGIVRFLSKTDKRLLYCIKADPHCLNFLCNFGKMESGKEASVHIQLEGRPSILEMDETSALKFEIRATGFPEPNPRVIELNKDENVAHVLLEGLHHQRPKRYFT
T1 sequence (P26010 20-723 limits assumed): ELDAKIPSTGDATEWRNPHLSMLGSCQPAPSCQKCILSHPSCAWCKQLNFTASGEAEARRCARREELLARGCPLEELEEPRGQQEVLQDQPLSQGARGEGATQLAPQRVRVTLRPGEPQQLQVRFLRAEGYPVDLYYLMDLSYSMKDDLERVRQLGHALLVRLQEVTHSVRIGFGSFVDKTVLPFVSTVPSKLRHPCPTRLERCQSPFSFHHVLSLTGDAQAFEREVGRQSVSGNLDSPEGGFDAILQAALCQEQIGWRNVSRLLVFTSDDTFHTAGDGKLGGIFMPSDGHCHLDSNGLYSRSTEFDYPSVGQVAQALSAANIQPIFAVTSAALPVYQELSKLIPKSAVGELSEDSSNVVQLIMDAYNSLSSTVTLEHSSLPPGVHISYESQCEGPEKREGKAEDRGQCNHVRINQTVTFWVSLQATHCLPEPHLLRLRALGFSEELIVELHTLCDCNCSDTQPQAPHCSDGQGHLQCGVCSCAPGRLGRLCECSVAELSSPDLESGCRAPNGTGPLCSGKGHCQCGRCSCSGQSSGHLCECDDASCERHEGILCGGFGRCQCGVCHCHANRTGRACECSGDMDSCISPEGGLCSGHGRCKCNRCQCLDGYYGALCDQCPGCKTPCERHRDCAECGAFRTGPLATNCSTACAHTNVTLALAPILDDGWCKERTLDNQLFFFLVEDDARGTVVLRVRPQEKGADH
Nature of the test: α4β7-MAdCAM Competition ELISA. The settings on record: thioether monomer peptides, Table 6; read-out: ELISA A4B7. It counts as binding. The procedure:
α4β7-MAdCAM Competition ELISA A nickel coated plate (Pierce #15442) was coated with rh integrin α4β[…] Systems #5397-A30) at 800 ng/well and incubated at room temperature with shaking for 1 hr. The solution was then removed by shaking and blocked with assay buffer (50 mM Tris-HCl pH7.6, 150 mM NaCl, 1 mM MnCl2 or MgCl2, 0.05% Tween-20 and 0.5% BSA) at 250 ul/well. The plate was then incubated at room temperature for 1 hr. Each well was washed 3 times with wash buffer (50 mM Tris-HCl pH7.6, 100 mM NaCl, 1 mM MnCl2 or MgCl2, 0.05% Tween-20). To each well was added 25 ul of a serial dilution (3-fold dilutions in assay buffer) of peptides starting at 20 μM. 25 ul of recombinant human MAdCAM-1 (R&D Systems #6056-MC) was then added to each well at a fixed concentration 20 nM. The final starting peptide concentration was 10 μM, and the final MAdCAM-1 concentration was 10 nM. The plates were then incubated at room temperature for 1 hr to reach binding equilibrium. The wells were then washed three times with wash buffer. 50 ul of mouse anti-human IgG1-HRP (Invitrogen #A10648) diluted in 1:2000 in assay buffer was then added to each well. The wells were incubated at room temperature for 45 min with shaking. The wells were then washed 3 times with wash buffer. 100 ul of TMB were then added to each well and closely observe during development time. The reaction was stopped with 2N H2SO4 and absorbance was read at 450 nm.

Where a SMILES comes first, the peptide text is derived from it. Some results are limits rather than exact numbers.

As for `CC(C)C[C@@H]1NC(=O)[C@H]([C@@H](C)O)NC(=O)[C@H](CC(=O)O)NC(=O)[C@H](CO)NC(=O)[C@H](CCCNC(=N)N)N(C)C(=O)C(C)SC(C)(C)[C@@H](C(=O)N[C@@H](Cc2c[nH]c3ccccc23)C(=O)N[C@H](CCCCN)C(N)=O)NC1=O` (single isomer, unassigned) [compound 54], the IC50 is more than 1000 nM.

As for `CC(C)C[C@@H]1NC(=O)[C@H]([C@@H](C)O)NC(=O)[C@H](CC(=O)O)NC(=O)[C@H](CO)NC(=O)[C@H](CCCNC(=N)N)N(C)C(=O)C(C)(C)SC[C@@H](C(=O)N[C@@H](Cc2c[nH]c3ccccc23)C(=O)N[C@H](CCCCN)C(N)=O)NC1=O` [compound 52], the IC50 was more than 1000 nM.

Turning to `CC(C)C[C@@H]1NC(=O)[C@H]([C@@H](C)O)NC(=O)[C@H](CC(=O)O)NC(=O)[C@H](CO)NC(=O)[C@H](CCCNC(=N)N)N(C)C(=O)c2ccccc2CSC(C)(C)[C@@H](C(=O)N[C@@H](Cc2ccc(O)cc2)C(=O)N[C@H](CCC(=O)O)C(=O)N[C@H](CCCCN)C(N)=O)NC1=O` [compound 79] (HELM PEPTIDE1{[meR].S.D.T.L.[Pen].Y.[dE].[dK].[am]}|CHEM1{[O=C(c1ccccc1C[*:2])[*:1]]}$PEPTIDE1,CHEM1,1:R1-1:R1|PEPTIDE1,CHEM1,6:R3-1:R2$$$V2.0), the IC50 is less than 25 nM.

As to `CC(=O)NCCCC[C@@H](NC(=O)C[C@H](CCC(=O)O)NC(=O)[C@H](Cc1c[nH]c2ccccc12)NC(=O)[C@H]1NC(=O)[C@H](CC(C)C)NC(=O)[C@H]([C@@H](C)O)NC(=O)[C@H](CC(=O)O)NC(=O)[C@H](CO)NC(=O)[C@H](CCCNC(=N)N)N(C)C(=O)c2ccccc2CSC1(C)C)C(N)=O` [compound 83] (HELM PEPTIDE1{[meR].S.D.T.L.[Pen].W.[O=C(O)CC[C@@H](CC(=O)[*:2])N[*:1]].[dK].[am]}|PEPTIDE2{[ac]}|CHEM1{[O=C(c1ccccc1C[*:2])[*:1]]}$PEPTIDE1,PEPTIDE2,9:R3-1:R2|PEPTIDE1,CHEM1,1:R1-1:R1|PEPTIDE1,CHEM1,6:R3-1:R2$$$V2.0), the IC50 was less than 25 nM.

On to `CC(=O)NCCCC[C@H](C(N)=O)N(C)C(=O)[C@H](CCC(=O)O)NC(=O)[C@H](Cc1c[nH]c2ccccc12)NC(=O)[C@H]1NC(=O)[C@H](CC(C)C)NC(=O)[C@H]([C@@H](C)O)NC(=O)[C@H](CC(=O)O)NC(=O)[C@H](CO)NC(=O)[C@H](CCCNC(=N)N)N(C)C(=O)c2ccccc2CSC1(C)C` [compound 84] (HELM PEPTIDE1{[meR].S.D.T.L.[Pen].W.E.[CN([C@H](CCCCN[*:3])C(=O)[*:2])[*:1]].[am]}|PEPTIDE2{[ac]}|CHEM1{[O=C(c1ccccc1C[*:2])[*:1]]}$PEPTIDE1,PEPTIDE2,9:R3-1:R2|PEPTIDE1,CHEM1,1:R1-1:R1|PEPTIDE1,CHEM1,6:R3-1:R2$$$V2.0), for which the IC50 was less than 25 nM.

For the compound `CC(=O)NCCCC[C@@H](C(N)=O)N(C)C(=O)[C@H](Cc1ccc(O)cc1)NC(=O)[C@H](Cc1c[nH]c2ccccc12)NC(=O)[C@H]1NC(=O)[C@H](CC(C)C)NC(=O)[C@H]([C@@H](C)O)NC(=O)[C@H](CC(=O)O)NC(=O)[C@H](CO)NC(=O)[C@H](CCCNC(=N)N)N(C)C(=O)c2ccccc2CSC1(C)C` [compound 85] (HELM PEPTIDE1{[meR].S.D.T.L.[Pen].W.Y.[CN([C@@H](CCCCN[*:3])C(=O)[*:2])[*:1]].[am]}|PEPTIDE2{[ac]}|CHEM1{[O=C(c1ccccc1C[*:2])[*:1]]}$PEPTIDE1,PEPTIDE2,9:R3-1:R2|PEPTIDE1,CHEM1,1:R1-1:R1|PEPTIDE1,CHEM1,6:R3-1:R2$$$V2.0), the IC50 was less than 25 nM.

With `CCCC[C@@H]1NC(=O)[C@H]([C@@H](C)O)NC(=O)[C@H](CC(=O)O)NC(=O)[C@H](CO)NC(=O)[C@H](CCCNC(=N)N)N(C)C(=O)c2ccccc2CSC(C)(C)[C@@H](C(=O)N[C@@H](Cc2c[nH]c3ccccc23)C(=O)N[C@@H](CCC(=O)O)C(=O)N[C@H](CCCCNC(C)=O)C(N)=O)NC1=O` [compound 86] (HELM PEPTIDE1{[meR].S.D.T.[Nle].[Pen].W.E.[dK].[am]}|PEPTIDE2{[ac]}|CHEM1{[O=C(c1ccccc1C[*:2])[*:1]]}$PEPTIDE1,PEPTIDE2,9:R3-1:R2|PEPTIDE1,CHEM1,1:R1-1:R1|PEPTIDE1,CHEM1,6:R3-1:R2$$$V2.0), the IC50 is less than 25 nM.

Consider `CC(=O)NCCCC[C@@H](NC(=O)[C@@H](CCC(=O)O)NC(=O)[C@H](Cc1ccccc1)NC(=O)[C@H]1NC(=O)[C@H](CC(C)C)NC(=O)[C@H]([C@@H](C)O)NC(=O)[C@H](CC(=O)O)NC(=O)[C@H](CO)NC(=O)[C@H](CCCNC(=N)N)N(C)C(=O)c2ccccc2CSC1(C)C)C(N)=O` [compound 87] (HELM PEPTIDE1{[meR].S.D.T.L.[Pen].F.[dE].[dK].[am]}|PEPTIDE2{[ac]}|CHEM1{[O=C(c1ccccc1C[*:2])[*:1]]}$PEPTIDE1,PEPTIDE2,9:R3-1:R2|PEPTIDE1,CHEM1,1:R1-1:R1|PEPTIDE1,CHEM1,6:R3-1:R2$$$V2.0), for which the IC50 was less than 25 nM.

As for `CC(=O)NCCCC[C@@H](NC(=O)[C@H](CCC(=O)O)NC(=O)[C@H](Cc1ccc(O)cc1)NC(=O)[C@H]1NC(=O)[C@H](CC(C)C)NC(=O)[C@H]([C@@H](C)O)NC(=O)[C@H](CC(=O)O)NC(=O)[C@H](CO)NC(=O)[C@H](CCCNC(=N)N)N(C)C(=O)c2ccccc2CSC1(C)C)C(N)=O` [compound 90] (HELM PEPTIDE1{[meR].S.D.T.L.[Pen].Y.E.[dK].[am]}|PEPTIDE2{[ac]}|CHEM1{[O=C(c1ccccc1C[*:2])[*:1]]}$PEPTIDE1,PEPTIDE2,9:R3-1:R2|PEPTIDE1,CHEM1,1:R1-1:R1|PEPTIDE1,CHEM1,6:R3-1:R2$$$V2.0), the IC50 is less than 25 nM.

With `CC(C)C[C@H](NC(=O)[C@@H](CCC(=O)O)NC(=O)[C@H](Cc1c[nH]c2ccccc12)NC(=O)[C@H]1NC(=O)[C@H](CC(C)C)NC(=O)[C@H]([C@@H](C)O)NC(=O)[C@H](CC(=O)O)NC(=O)[C@H](CO)NC(=O)[C@H](CCCNC(=N)N)N(C)C(=O)c2ccccc2CSC1(C)C)C(N)=O` [compound 99] (HELM PEPTIDE1{[meR].S.D.T.L.[Pen].W.[dE].L.[am]}|CHEM1{[O=C(c1ccccc1C[*:2])[*:1]]}$PEPTIDE1,CHEM1,1:R1-1:R1|PEPTIDE1,CHEM1,6:R3-1:R2$$$V2.0), the IC50 is less than 25 nM.

Turning to `CC(C)C[C@@H]1NC(=O)[C@H]([C@@H](C)O)NC(=O)[C@H](CC(=O)O)NC(=O)[C@H](CO)NC(=O)[C@H](CCCNC(=N)N)N(C)C(=O)c2ccccc2CSC(C)(C)[C@@H](C(=O)N[C@@H](Cc2c[nH]c3ccccc23)C(=O)N[C@H](CCC(=O)O)C(=O)N[C@@H](CCC(N)=O)C(N)=O)NC1=O` [compound 103] (HELM PEPTIDE1{[meR].S.D.T.L.[Pen].W.[dE].Q.[am]}|CHEM1{[O=C(c1ccccc1C[*:2])[*:1]]}$PEPTIDE1,CHEM1,1:R1-1:R1|PEPTIDE1,CHEM1,6:R3-1:R2$$$V2.0), the IC50 was less than 25 nM.
